{"source": "patent US20250382570A1", "about": "“GENERATION AND APPLICATION OF FUNCTIONAL HUMAN ASTROCYTES FROM PLURIPOTENT STEM CELLS” (The Regents of the University of California, priority 2022, published 2025)", "tested_on": "iAstrocytes", "test": "Time-lapse imaging of phagocytosis of pHrodoRed-conjugated myelin by iAstrocytes", "type": "cell-based, human", "conditions": "imaging over 24 h", "experimental": "FIGS. 3A-3B: (FIG. 3A) iAstrocytes are compatible for study with microglia co-cultures. Cultured iAstrocytes are subsequently incubated with iPSC-derived microglia (Abud et al., 2017). (FIG. 3B) iAstrocytes are labeled with GFAP and iPSC-derived microglia are labeled with Iba1 (light grey). The differentiation protocols for both microglia and astrocytes are serum-free and thus, make them compatible to study together without the confounds of serum activation of glia. Astrocytes phagocytose pHrodoRed-labeled myelin.\n(FIGS. 4A-4C, FIG. 4A: 0 hour; FIG. 4B, 12 hours; and FIG. 4C, 24 hours). Phagocytosis can be visualized by pHrodoRed internalization which is absent at time zero (FIG. 4A). Phagocytosis of pHrodoRed-conjugated myelin is detected in iAstrocytes at 12 h (FIG. 4B), which gradually increases with time (24 h, FIG. 4C). FIG. 4D graphically depicts total red object area (y-axis) versus time in hours (x-axis).", "data": [{"substance": "TGFβ: Growth factor stated as necessary for quiescent astrocytes; inhibits myelin phagocytosis by iAstrocytes", "values": [{"measurement": "effect on phagocytosis of myelin by iAstrocytes", "result": "inhibited"}]}]}
